What is called IC50 is the point on the concentration scale where inhibition reaches its midpoint. The inhibition is the percentage by which the read-out fell short of the control.

SMILES strings stand for the structures.

Experiment [1] has as its target EGFR (Homo sapiens, UniProt P00533). The experiment can be described thus: EGFR kinase assay (PGT-coated 96-well plates). It counts as biochemical. Particulars: read-out: IC50 (nM) ± SEM EGFR. How it is done: The EGFR kinase assay was carried out in 96-well plates coated with PGT (poly l-glutamic acid l-tyrosine, 4:1, Sigma Aldrich, St. Louis, MO) as previously described. IC50 values were calculated using GraphPad Prism 5. Each experiment was carried out at least three times. The VEGFR-2 kinase assay was carried out in 96-well streptavidin coated plate using recombinant human VEGFR-2/KDR ELISA kit according to manufacturer’s instructions.

Experiment [2] deals with BT-549 breast cancer cells. The experiment can be described thus: Anti-proliferative MTT assay. Type of experiment: cell-based. As to conditions: Homo sapiens, 24 h, read-out: % Growth inhibition ± SEM BT-549. As to the method: (§1) To evaluate the anti-proliferative activity of the synthesised thiazolyl-pyrazoline derivatives (7a–7d, 10a–10d, and 13a–13f), a preliminary in vitro one dose (10 µM) anticancer assay was performed. Nine cell lines derived from five tumour subpanels were examined; leukaemia (K562 and KG-1a), breast (MCF-7, BT-549 and HCC70), lung (A549 and H441), colon (HCT116) and liver (HepG2) cancer cell lines. The compounds were added at a single concentration (10 µM) and the cultures were incubated for 24 h, then the per cent growth inhibition (%GI) was calculated.
(§2) Human leukaemia (K562 and KG-1a), breast (MCF-7, BT-549 and HCC70), lung (A549, H441, NCI-H1650 and NCI-H1975), colon (HCT116), liver (HepG2) cancer cell lines and WI-38 human lung fibroblast cell line were obtained from the American Type Culture Collection (ATCC; Manassas, VA) and were cultured in their suitable media containing 10% foetal bovine serum (FBS; Sigma-Aldrich) in a humidified atmosphere with 5% CO2 at 37 °C. Gefitinib and vandetanib were purchased from Sigma-Aldrich. All chemicals used in this study were analytical or cell-culture grade.
(§3) Cytotoxicity was measured using the MTT assay. Human leukaemia (K562 and KG-1a), breast (MCF-7, BT-549 and HCC70), lung (A549, H441, NCI-H1650 and NCI-H1975), colon (HCT116), liver (HepG2) cancer cell lines and WI-38 human lung fibroblast cell line were plated at a density of 1 × 10^4 cells per well in 96-well plates overnight and then treated with the compounds. After 24 h treatment, 20 μL of MTT solution (2 mg/mL in phosphate-buffered saline [PBS]) was added to each well and the cells were cultured for another 4 h at 37 °C. The medium was aspirated and 150 μL DMSO was added to solubilise MTT formazan crystals. The plates were then shaken, and the optical density was determined at 570 nm using an ELISA plate reader (Model 550, Bio-Rad, Hercules, CA). At least three independent experiments were performed. The IC50 values were calculated using GraphPad Prism 5 (Version 5.01, GraphPad Software, San Diego, CA).
In general terms: Formazan colour is commonly taken as a measure of viable cells.

Experiment [3] concerns HCC70 breast cancer cells. The experiment can be described thus: Anti-proliferative MTT assay. It counts as cell-based. As to conditions: Homo sapiens, 24 h, read-out: % Growth inhibition ± SEM HCC70. As to the method:
as §1, §2, §3

Experiment [4] concerns HCT116 colon cancer cells. As to the kind of experiment: Anti-proliferative MTT assay. Particulars: Homo sapiens, HCT-116, 24 h, read-out: % Growth inhibition ± SEM HCT116. It counts as cell-based. How it is done: as §1, §2, §3
Experiment [5] relates to HepG2 liver cancer cells. As to the kind of experiment: Anti-proliferative MTT assay. Particulars: Homo sapiens, 24 h, read-out: % Growth inhibition ± SEM HepG2. Type of experiment: cell-based. How it is done: as §1, §2, §3
In experiment [6] the test system is K562 leukaemia cells. As to the kind of experiment: Anti-proliferative MTT assay. Type of experiment: cell-based. As to conditions: Homo sapiens, 24 h, read-out: % Growth inhibition ± SEM K562. How it is done: as §1, §2, §3
Experiment [7] relates to KG-1a leukaemia cells. As to the kind of experiment: Anti-proliferative MTT assay. It counts as cell-based. As to conditions: Homo sapiens, 24 h, read-out: % Growth inhibition ± SEM KG-1a. As to the method:
as §1, §2, §3

The subject of experiment [8] is MCF-7 breast cancer cells. The experiment can be described thus: Anti-proliferative MTT assay. Type of experiment: cell-based. As to conditions: Homo sapiens, MCF7, 24 h, read-out: % Growth inhibition ± SEM MCF-7. As to the method: as §1, §2, §3
For experiment [9], the system named is NCI-H1650 cells (EGFR exon19 deletion delE746-A750). As to the kind of experiment: MTT assay on EGFR-mutated NSCLC cells. It counts as cell-based. Particulars: Homo sapiens. How it is done: (§4) All chemicals used in this study were analytical or cell-culture grade.
(§5) Cytotoxicity was measured using the MTT assay. […] The medium was aspirated and 150 μL DMSO was added to solubilise MTT formazan crystals. The plates were then shaken, and the optical density was determined at 570 nm using an ELISA plate reader (Model 550, Bio-Rad, Hercules, CA). At least three independent experiments were performed.

The test system of experiment [10] is NCI-H1975 cells (EGFR L858R/T790M). As to the kind of experiment: MTT assay on EGFR-mutated NSCLC cells. It counts as cell-based. As to conditions: Homo sapiens, EGFR L858R/T790M double mutation. How it is done:
as §4, §5

In experiment [11] the test system is A549 cells. As to the kind of experiment: Cell cycle analysis by flow cytometry (7AAD). It counts as cell-based, human. As to conditions: A549, 24 h; untreated controls 6.06% and 5.93%. How it is done:
Figure 6. […] (A) Representative cell cycle distribution data are shown by flow cytometric analysis upon incubation with 0 (control), 2.5 or 5 μM of 10b or 10d or with 0 (control), 5 or 20 μM of gefitinib for 24 h. (B) Quantification of cell cycle distribution upon 24 h incubation with 10b or 10d.
DNA content was measured using 7-aminoactinmycin D (7AAD) (Biotium, Inc., Hayward, CA) staining and is commonly used for cell cycle phase analysis as previously described. Apoptosis was evaluated using the annexin V/propidium iodide (PI) staining kit (BioLegend, San Diego, CA) according to the manufacturer’s instructions and as previously described.
In general terms: Flow cytometry measures light scatter and fluorescence of single cells or particles in a stream.

The subject of experiment [12] is A549 lung cancer cells. As to the kind of experiment: Anti-proliferative MTT assay. Particulars: Homo sapiens, A549, 24 h; for inhibition at 10 µM: read-out: % Growth inhibition ± SEM A549; for IC50: read-out: IC50 (µM) ± SEM A549.
Experiment [13] deals with TEK (Homo sapiens, UniProt Q02763). The experiment can be described thus: Kinase selectivity profiling, Z'-LYTE FRET.
Sequence of TEK (Q02763 23-1124): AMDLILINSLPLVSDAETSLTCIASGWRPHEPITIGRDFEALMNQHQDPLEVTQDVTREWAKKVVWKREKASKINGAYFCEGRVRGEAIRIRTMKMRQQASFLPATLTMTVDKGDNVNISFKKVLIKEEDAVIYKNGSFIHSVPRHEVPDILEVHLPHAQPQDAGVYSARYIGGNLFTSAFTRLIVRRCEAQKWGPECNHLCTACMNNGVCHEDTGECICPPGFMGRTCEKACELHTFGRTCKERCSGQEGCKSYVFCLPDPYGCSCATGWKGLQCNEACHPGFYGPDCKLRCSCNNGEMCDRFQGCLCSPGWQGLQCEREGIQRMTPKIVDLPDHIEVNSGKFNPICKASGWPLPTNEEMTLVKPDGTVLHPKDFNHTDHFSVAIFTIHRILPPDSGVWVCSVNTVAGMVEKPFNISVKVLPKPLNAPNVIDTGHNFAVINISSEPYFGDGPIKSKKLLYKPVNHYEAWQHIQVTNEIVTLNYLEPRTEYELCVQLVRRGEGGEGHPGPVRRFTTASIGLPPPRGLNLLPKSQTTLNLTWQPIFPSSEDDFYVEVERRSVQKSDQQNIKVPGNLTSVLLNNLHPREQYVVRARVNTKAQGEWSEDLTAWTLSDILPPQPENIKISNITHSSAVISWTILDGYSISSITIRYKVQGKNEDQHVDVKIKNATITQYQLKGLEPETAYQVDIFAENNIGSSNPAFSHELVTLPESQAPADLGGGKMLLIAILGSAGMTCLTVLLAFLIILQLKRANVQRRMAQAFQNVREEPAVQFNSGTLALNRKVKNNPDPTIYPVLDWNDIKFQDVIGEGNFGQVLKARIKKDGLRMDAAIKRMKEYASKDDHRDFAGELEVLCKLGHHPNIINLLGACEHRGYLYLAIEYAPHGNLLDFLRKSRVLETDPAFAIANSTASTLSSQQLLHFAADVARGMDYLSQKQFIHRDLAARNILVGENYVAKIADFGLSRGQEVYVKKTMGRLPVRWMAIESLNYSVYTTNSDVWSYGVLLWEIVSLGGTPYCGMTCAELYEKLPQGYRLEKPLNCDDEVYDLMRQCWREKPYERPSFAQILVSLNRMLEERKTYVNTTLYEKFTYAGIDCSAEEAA
For experiment [14], the target named is LCK (Homo sapiens, UniProt P06239). The experiment can be described thus: Kinase selectivity profiling, Z'-LYTE FRET.
Sequence of LCK (P06239 whole entry): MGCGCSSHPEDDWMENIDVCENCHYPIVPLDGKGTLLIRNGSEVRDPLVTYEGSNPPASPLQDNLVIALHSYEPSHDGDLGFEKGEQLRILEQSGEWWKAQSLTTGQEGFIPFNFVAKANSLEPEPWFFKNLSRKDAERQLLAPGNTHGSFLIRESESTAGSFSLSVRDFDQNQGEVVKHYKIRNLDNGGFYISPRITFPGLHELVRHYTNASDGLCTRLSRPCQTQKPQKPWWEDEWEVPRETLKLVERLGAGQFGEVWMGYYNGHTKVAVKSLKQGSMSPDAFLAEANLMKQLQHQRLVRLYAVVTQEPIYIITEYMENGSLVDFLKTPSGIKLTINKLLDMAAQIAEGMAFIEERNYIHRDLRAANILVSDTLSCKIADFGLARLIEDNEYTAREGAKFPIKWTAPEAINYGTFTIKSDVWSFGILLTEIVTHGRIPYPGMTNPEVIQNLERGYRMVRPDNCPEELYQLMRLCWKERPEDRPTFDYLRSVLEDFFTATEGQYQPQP
The target of experiment [15] is CLK1 (Homo sapiens, UniProt P49759). The experiment can be described thus: Kinase selectivity profiling, Z'-LYTE FRET.
Sequence of CLK1 (P49759 whole entry): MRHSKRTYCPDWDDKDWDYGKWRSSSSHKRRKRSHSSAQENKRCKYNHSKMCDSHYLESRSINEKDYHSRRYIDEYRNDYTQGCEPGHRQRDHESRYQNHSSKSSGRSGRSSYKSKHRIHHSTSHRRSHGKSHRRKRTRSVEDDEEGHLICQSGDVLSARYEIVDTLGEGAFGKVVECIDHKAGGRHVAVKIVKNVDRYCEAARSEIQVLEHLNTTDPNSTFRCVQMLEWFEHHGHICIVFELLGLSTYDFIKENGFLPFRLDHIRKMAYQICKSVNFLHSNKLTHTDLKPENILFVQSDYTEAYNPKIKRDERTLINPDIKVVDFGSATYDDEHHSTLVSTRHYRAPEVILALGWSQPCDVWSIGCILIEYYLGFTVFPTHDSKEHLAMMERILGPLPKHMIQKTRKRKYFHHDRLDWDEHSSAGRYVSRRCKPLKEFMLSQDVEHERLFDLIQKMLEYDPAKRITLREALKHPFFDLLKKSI
Experiment [16] has as its target AKT1 (Homo sapiens, UniProt P31749). As to the kind of experiment: Kinase selectivity profiling, Z'-LYTE FRET.
The target of experiment [17] is CDK1 (Homo sapiens, UniProt P06493). The experiment can be described thus: Kinase selectivity profiling, Z'-LYTE FRET.
Sequence of CDK1 (P06493 whole entry): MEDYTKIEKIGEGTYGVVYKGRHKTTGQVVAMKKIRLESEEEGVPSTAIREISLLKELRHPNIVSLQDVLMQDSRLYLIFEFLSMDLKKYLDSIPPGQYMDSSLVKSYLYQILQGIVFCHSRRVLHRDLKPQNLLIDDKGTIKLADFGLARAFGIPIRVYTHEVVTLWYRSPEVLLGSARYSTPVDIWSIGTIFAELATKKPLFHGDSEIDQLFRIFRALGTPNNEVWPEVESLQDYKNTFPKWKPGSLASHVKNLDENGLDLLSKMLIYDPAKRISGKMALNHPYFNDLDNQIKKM
Sequence of CDK1 (P14635 whole entry partner): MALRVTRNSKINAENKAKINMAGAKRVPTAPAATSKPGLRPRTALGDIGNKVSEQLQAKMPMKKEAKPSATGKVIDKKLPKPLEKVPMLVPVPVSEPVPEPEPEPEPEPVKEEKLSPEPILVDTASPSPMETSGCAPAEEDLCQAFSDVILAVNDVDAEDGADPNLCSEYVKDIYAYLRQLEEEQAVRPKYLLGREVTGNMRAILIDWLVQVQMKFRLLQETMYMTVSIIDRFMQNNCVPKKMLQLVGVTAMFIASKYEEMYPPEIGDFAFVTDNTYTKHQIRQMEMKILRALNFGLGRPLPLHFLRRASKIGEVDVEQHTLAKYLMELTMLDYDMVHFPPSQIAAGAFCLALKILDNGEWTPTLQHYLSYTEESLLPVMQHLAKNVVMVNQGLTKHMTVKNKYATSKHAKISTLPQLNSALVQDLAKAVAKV
The target in experiment [18] is CDK5 (Homo sapiens, UniProt Q00535). As to the kind of experiment: Kinase selectivity profiling, Z'-LYTE FRET.

Sequence of EGFR (P00533 25-1210): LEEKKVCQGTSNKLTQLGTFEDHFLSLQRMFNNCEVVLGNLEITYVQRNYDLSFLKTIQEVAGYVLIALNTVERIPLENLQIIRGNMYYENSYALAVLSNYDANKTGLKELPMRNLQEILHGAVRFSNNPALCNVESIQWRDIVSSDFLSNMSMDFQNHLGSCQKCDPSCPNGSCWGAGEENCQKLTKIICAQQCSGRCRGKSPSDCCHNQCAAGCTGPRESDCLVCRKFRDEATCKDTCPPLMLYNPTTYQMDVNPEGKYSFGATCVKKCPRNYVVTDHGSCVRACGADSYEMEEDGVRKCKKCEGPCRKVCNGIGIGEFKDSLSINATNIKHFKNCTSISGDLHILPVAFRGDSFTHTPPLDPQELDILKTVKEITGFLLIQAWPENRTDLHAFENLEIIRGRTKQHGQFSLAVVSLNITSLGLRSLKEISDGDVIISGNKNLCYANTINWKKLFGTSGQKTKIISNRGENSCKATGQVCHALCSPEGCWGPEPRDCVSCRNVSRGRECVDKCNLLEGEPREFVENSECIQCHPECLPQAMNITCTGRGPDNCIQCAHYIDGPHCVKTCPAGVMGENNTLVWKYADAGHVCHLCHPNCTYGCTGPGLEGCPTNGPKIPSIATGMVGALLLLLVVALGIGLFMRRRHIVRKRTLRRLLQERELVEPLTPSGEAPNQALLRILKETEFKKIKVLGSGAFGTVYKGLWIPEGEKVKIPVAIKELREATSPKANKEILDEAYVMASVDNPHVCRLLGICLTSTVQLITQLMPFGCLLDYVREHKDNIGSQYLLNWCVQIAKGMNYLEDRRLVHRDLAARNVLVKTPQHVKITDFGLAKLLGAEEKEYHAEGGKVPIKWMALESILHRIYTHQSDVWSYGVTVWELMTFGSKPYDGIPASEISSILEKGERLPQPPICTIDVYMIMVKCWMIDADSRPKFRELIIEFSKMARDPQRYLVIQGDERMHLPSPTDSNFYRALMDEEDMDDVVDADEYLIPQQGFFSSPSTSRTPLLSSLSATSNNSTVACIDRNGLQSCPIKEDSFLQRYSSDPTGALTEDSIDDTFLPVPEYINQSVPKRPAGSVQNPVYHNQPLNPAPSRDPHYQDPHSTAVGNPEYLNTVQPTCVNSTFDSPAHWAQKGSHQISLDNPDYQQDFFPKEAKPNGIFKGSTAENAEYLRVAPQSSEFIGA
Sequence of AKT1 (P31749 whole entry): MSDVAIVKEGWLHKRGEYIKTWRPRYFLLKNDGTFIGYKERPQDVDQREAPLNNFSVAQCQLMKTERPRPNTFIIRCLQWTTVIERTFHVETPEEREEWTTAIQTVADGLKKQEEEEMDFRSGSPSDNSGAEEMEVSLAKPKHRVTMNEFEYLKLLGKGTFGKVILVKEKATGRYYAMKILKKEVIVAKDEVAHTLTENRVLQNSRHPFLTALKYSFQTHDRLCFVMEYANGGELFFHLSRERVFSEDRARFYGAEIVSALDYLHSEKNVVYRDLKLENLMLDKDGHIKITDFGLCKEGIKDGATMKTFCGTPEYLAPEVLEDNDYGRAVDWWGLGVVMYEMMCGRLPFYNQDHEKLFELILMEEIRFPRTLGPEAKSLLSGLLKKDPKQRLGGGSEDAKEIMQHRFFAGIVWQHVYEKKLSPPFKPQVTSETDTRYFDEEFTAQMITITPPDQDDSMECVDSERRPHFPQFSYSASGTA

As to `CCOC(=O)c1sc(N2N=C(c3ccc(Cl)cc3Cl)CC2c2ccc(OC)cc2)nc1C` (centres unmarked) [Compound 10b, Ethyl-2-(3-(2,4-dichlorophenyl)-5-(4-methoxyphenyl)-4,5-dihydro-1H-pyrazol-1-yl)-4-methylthiazole-5-carboxylate], the IC50 was 40.7 ± 1 nM in experiment [1]; 5.7 ± 0.5 µM in experiment [9]; 6.2 ± 0.9 µM in [10]; 4.2 ± 0.8 µM in experiment [12]; greater than 2 µM in experiment [13]; greater than 2 µM in experiment [14]. The 50% inhibitory concentration (IC50) in [15] came out at 1.07 ± 0.054 µM; in [16], 0.816 ± 0.038 µM; in [17], 0.31 ± 0.012 µM; in experiment [18], 1.14 ± 0.02 µM. The inhibition at 10 µM in experiment [2] was 47.2 ± 4.9%; in experiment [3] it was 41.5 ± 2.1%; in [4], 37.7 ± 3.9%; in experiment [5], 50.6 ± 2.2%; in experiment [6] it was 54.2 ± 3.8%; in experiment [7] it was 31 ± 2.5%. The inhibition at 10 µM in [8] was 48.5 ± 2.3%; in experiment [12] it was 88.3 ± 4.9%. In addition, the “cells at G2/M phase” value in experiment [11] worked out at 29.2%.
In the case of `COc1ccc(C2CC(c3ccc(Cl)cc3Cl)=NN2c2nc(C)c(C(=O)Nc3ccccc3)s2)cc1OC` (centres unmarked) [Compound 10d, 2-(3-(2,4-Dichlorophenyl)-5-(3,4-dimethoxyphenyl)-4,5-dihydro-1H-pyrazol-1-yl)-4-methyl-N-phenylthiazole-5-carboxamide], the IC50 in experiment [1] is 32.5 ± 2.2 nM; in experiment [9], 3.5 ± 0.2 µM; in experiment [10], 4.4 ± 0.6 µM; in experiment [12], 2.9 ± 0.2 µM; in [13], greater than 2 µM; in experiment [14], greater than 2 µM. The IC50 in experiment [15] is 0.798 ± 0.019 µM; in [16], 0.702 ± 0.024 µM; in [17] it was 0.245 ± 0.007 µM; in experiment [18], 0.993 ± 0.015 µM. For the same molecule, the inhibition at 10 µM was 40.1 ± 2% in experiment [2]; 54.1 ± 2.8% in experiment [3]; 56.5 ± 2% in experiment [4]; 65.5 ± 3.9% in experiment [5]; 60.2 ± 2.3% in experiment [6]; 57.2 ± 3.4% in [7]. The inhibition at 10 µM in experiment [8] worked out at 60.9 ± 4.3%; in experiment [12], 95.3 ± 5.3%. For the same molecule, the “cells at G2/M phase” value in experiment [11] is 33.92%.

(Values after PMC9415638, “Discovery of novel thiazolyl-pyrazolines as dual EGFR and VEGFR-2 inhibitors endowed with in vitro antitumor activity towards non-small lung cancer” (Journal of Enzyme Inhibition and Medicinal Chemistry, 2022).)
